≈ marks a conversion by molar mass, not a printed value. Where “and” joins values, the source holds several entries; their conditions need not be identical. Equal values may be shown once.
Key:
Experiment in all cases: ≥ marks a high value that may be exact or a test limit, other limits are often not marked, values filed in µg/mL are converted to µM
[1] = tested on: Listeria monocytogenes ATCC 19111
[2] = tested on: Klebsiella pneumoniae 1625
[3] = tested on: Acinetobacter baumannii
[4] = tested on: Escherichia coli ATCC 25922
[5] = tested on: Escherichia coli 170
[6] = tested on: Escherichia coli 4530
[7] = tested on: Staphylococcus aureus ATCC 25923
[8] = tested on: Klebsiella pneumoniae 913
[9] = tested on: Pseudomonas aeruginosa ATCC 27853
[10] = tested on: Streptococcus pneumoniae ATCC 49619
[11] = tested on: Pseudomonas aeruginosa 4677
[12] = tested on: Enterobacter cloacae 6780
[13] = tested on: Klebsiella pneumoniae ST258
[14] = tested on: Enterobacter cloacae 2524
[15] = tested on: Salmonella typhimurium
[16] = tested on: Staphylococcus aureus
[17] = tested on: Escherichia coli W160-37
[18] = tested on: Staphylococcus epidermidis
[19] = tested on: Staphylococcus aureus A170
[20] = tested on: Candida albicans ATCC 37092
[21] = tested on: Staphylococcus aureus ATCC 29213
[22] = tested on: Candida tropicalis ATCC 37097
[23] = tested on: Klebsiella oxytoca ATCC 49131
[24] = tested on: Proteus vulgaris ATCC 49132
[25] = tested on: Escherichia coli IFO 12734
[26] = tested on: Bacillus subtilis IFO 3134
[27] = tested on: Pseudomonas aeruginosa IFO 12582
[28] = tested on: Staphylococcus aureus IFO 12732

CSCC[C@H](NC(=O)CNC(=O)[C@@H](NC(=O)[C@@H]1CCCN1C(=O)[C@H](CCSC)NC(=O)CNC(=O)[C@H](CC(N)=O)NC(=O)[C@H](CC(N)=O)NC(=O)[C@H](Cc1ccc(O)cc1)NC(=O)[C@@H](NC(=O)[C@H](CCCN=C(N)N)NC(=O)[C@H](CS)NC(=O)[C@H](CCCN=C(N)N)NC(=O)[C@H](Cc1cnc[nH]1)NC(=O)[C@H](CCCCN)NC(=O)[C@H](CCCCN)NC(=O)[C@H](CCCN=C(N)N)NC(=O)[C@@H](N)CCCCN)C(C)C)[C@@H](C)O)C(=O)N[C@@H](Cc1ccc(O)cc1)C(=O)N[C@@H](CCCN=C(N)N)C(=O)N[C@@H](Cc1c[nH]c2ccccc12)C(=O)N[C@@H](CS)C(=O)O [KRKKHRCRVYNNGMPTGMYRWC]
MIC [1]: 8 µM (≈ 22.3 µg/mL)

CC[C@H](C)[C@H](NC(=O)CN)C(=O)N[C@@H](CC(C)C)C(=O)N[C@@H](CCCCN)C(=O)N[C@H](C(=O)N[C@H](C(=O)N[C@@H](CCCCN)C(=O)N[C@@H](CO)C(=O)N[C@H](C(=O)N[C@@H](C)C(=O)N[C@@H](CO)C(=O)N[C@@H](CCCCN)C(=O)N[C@@H](CC(C)C)C(=O)N[C@@H](CCCCN)C(=O)N[C@@H](CCCN=C(N)N)C(=O)N[C@@H](CCCCN)C(=O)N[C@@H](C)C(=O)N[C@@H](CCCCN)C(=O)O)[C@@H](C)CC)[C@@H](C)CC)[C@@H](C)O [GILKTIKSIASKLKRKAK]
MIC [2]: 1.56 µM (≈ 3.09 µg/mL) | MIC [3]: 2.21 µM (≈ 4.38 µg/mL) | MIC [4]: 1.56 µM (≈ 3.09 µg/mL) | MIC [5]: 1.56 µM (≈ 3.09 µg/mL) | MIC [6]: 25 µM (≈ 49.6 µg/mL) | MIC [7]: > 25.2 µM | MIC [8]: 3.12 µM (≈ 6.19 µg/mL) | MIC [9]: > 25.2 µM | MIC [10]: ≥ 50 µM | MIC [11]: 25 µM (≈ 49.6 µg/mL) | MIC [12]: 3.12 µM (≈ 6.19 µg/mL) | MIC [13]: 25.2 µM (≈ 50 µg/mL) | MIC [14]: ≥ 50 µM | MIC [15]: 1.6 µM (≈ 3.17 µg/mL)

CC[C@H](C)[C@H](N)C(=O)N[C@@H](CC(C)C)C(=O)N1CCC[C@H]1C(=O)N[C@@H](Cc1c[nH]c2ccccc12)C(=O)N[C@@H](CCCCN)C(=O)N[C@@H](CC(C)C)C(=O)N1CCC[C@H]1C(=O)N[C@@H](CC(C)C)C(=O)N[C@@H](CC(C)C)C(=O)N1CCC[C@H]1C(=O)N[C@@H](CC(C)C)C(=O)N[C@@H](CCCN=C(N)N)C(=O)N[C@@H](CCCN=C(N)N)C(N)=O [ILPWKLPLLPLRR]
MIC [16]: 6.19 µM (≈ 9.99 µg/mL) | MIC [17]: 9.29 µM (≈ 15 µg/mL)

CC[C@H](C)[C@H](NC(=O)[C@@H]1CCCN1C(=O)[C@H](CC(C)C)NC(=O)[C@@H](N)CC(C)C)C(=O)N[C@H](C(=O)N[C@@H](C)C(=O)N[C@@H](CC(N)=O)C(=O)N[C@@H](CC(C)C)C(=O)N[C@@H](CC(C)C)C(=O)N[C@@H](CCCCN)C(=O)N[C@@H](C)C(=O)N[C@@H](CC(C)C)C(=O)N[C@@H](CC(C)C)C(=O)O)C(C)C [LLPIVANLLKALL]
MIC [18]: 7.19 µM (≈ 10 µg/mL) | MIC [19]: 3.6 µM (≈ 5 µg/mL)

CC(C)C[C@H](NC(=O)[C@H](CCCN=C(N)N)NC(=O)[C@H](CCCN=C(N)N)NC(=O)[C@H](Cc1ccc(O)cc1)NC(=O)[C@H](CC(C)C)NC(=O)[C@@H](N)CCCN=C(N)N)C(=O)N[C@@H](Cc1ccc(O)cc1)C(=O)N[C@@H](CCCN=C(N)N)C(N)=O [RLYRRLYR]
MIC [4]: 39 µM and 33.6 µM | MIC [20]: 9 µM and 17.4 µM | MIC [21]: 8.1 µM and 17.5 µM | MIC [9]: 4.1 µM and 8.7 µM | MIC [22]: 1.4 µM and 3.2 µM | MIC [23]: 14.1 µM and 13.1 µM | MIC [24]: 10.2 µM and 18.4 µM

CC[C@H](C)[C@H](NC(=O)[C@H](C)NC(=O)[C@@H]1CCCN1C(=O)[C@@H](NC(=O)[C@@H](NC(=O)[C@H](Cc1cnc[nH]1)NC(=O)[C@H](C)NC(=O)[C@H](C)NC(=O)[C@@H](NC(=O)[C@H](CCCCN)NC(=O)[C@H](C)NC(=O)[C@H](CC(C)C)NC(=O)[C@@H](NC(=O)CNC(=O)[C@H](Cc1ccccc1)NC(=O)[C@H](CC(C)C)NC(=O)CN)C(C)C)C(C)C)C(C)C)C(C)C)C(=O)N[C@@H](C)C(=O)N[C@@H](CCCCN)C(=O)N[C@@H](Cc1cnc[nH]1)C(=O)N[C@@H](Cc1ccccc1)C(N)=O [GLFGVLAKVAAHVVPAIAKHF]
MIC [25]: 16 µM (≈ 34.3 µg/mL) | MIC [26]: 4 µM (≈ 8.58 µg/mL) | MIC [27]: ≥ 32 µM | MIC [28]: 4 µM (≈ 8.58 µg/mL)
